# Measured values published in patent US10072025B2, “Ethyl N-boc piperidinyl pyrazolo pyridones as Janus kinase inhibitors” (Merck Sharp & Dohme Corp., priority 2014, dated 2018).
# Target: JAK1 (Homo sapiens (Human), UniProt P23458)
# Assay: Jak Biochemical HTRF Assay (JAK1)
# Details: recombinant purified GST-tagged catalytic domain; HTRF; [ATP] 31.8 μM; [E] 1.405 nM
# Protocol: (§1) Jak Biochemical HTRF Assay Protocol
# (§2) The ability of compounds to inhibit the activity of JAK1, JAK2, JAK3, and Tyk2 was measured using a recombinant purified GST-tagged catalytic domain for each enzyme (Invitrogen JAK1 #M4290, JAK2 #M4290, JAK3 #M4290, Tyk2 #M4290) in an HTRF format biochemical assay. […] The basic assay protocol is as follows: First, 250 nL of diluted compounds in DMSO were dispensed into the wells of a dry 384-well Black plate (Greiner #781076) using a Labcyte Echo 555 acoustic dispenser. Subsequent reagent additions employed an Agilent Bravo. Next, 18 μL of 1.11× enzyme and 1.11× substrate in 1× assay buffer (Invitrogen kinase buffer # PV3189, 2 mM DTT, 0.05% BSA) were added to the wells and shaken and then preincubated for 30 minutes at room temperature to allow compound binding to equilibrate. After equilibration, 2 μL of 10×ATP in 1× assay buffer was added to initiate the kinase reaction and the plates were shaken and then incubated at room temperature for 120 minutes. At the end of the incubation, 20 μL of 2× stop buffer (streptavidin-Dylight 650 (Thermo #84547B/100 mL), Eu-tagged pY20 antibody (Perkin Elmer #AD0067), EDTA, HEPES, and Triton) was added to quench the reaction. Plates were shaken and centrifuged and then incubated 60 minutes at room temperature and then read on a Perkin Elmer Envision (Xex=337 nm, λem=665 and 615 nm, TRF delay time=20 μs). HTRF signal=10,000*665 nm reading/615 nm reading. After normalization to untreated controls, the percent inhibition of the HTRF signal at each compound concentration was calculated. The plot of percent inhibition versus the log of compound concentration was fit with a 4-parameter dose response equation to calculate IC50 values.
# Sequence of JAK1 (P23458 875-1153): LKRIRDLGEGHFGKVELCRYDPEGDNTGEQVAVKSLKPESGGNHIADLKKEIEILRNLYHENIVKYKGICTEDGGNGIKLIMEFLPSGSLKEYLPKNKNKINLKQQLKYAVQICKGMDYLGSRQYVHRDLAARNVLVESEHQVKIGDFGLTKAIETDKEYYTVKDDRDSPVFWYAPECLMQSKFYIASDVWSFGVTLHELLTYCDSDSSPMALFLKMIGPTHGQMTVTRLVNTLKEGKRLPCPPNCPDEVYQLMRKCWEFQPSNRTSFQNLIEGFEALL
row,SMILES,IC50 [nM]
1,"CCC1(n2nc(Nc3ccc(C(=O)N4[C@@H](C)COC[C@@H]4C)c(C)c3)c3c(=O)[nH]ccc32)CCN(C(=O)OC(C)(C)C)CC1 (single isomer, unassigned) [Example 2-19, tert-butyl 4-(3-(4-((3S,5S or 3R,5R)-3,5-dimethylmorpholine-4-carbonyl)-3-methylphenylamino)-4-oxo-4,5-dihydropyrazolo[4,3-c]pyridin-1-yl)-4-ethylpiperidine-1-carboxylate]",0.85
2,"CCC1(n2nc(Nc3ccc(C(=O)N4[C@H](C)COC[C@H]4C)c(C)c3)c3c(=O)[nH]ccc32)CCN(C(=O)OC(C)(C)C)CC1 (single isomer, unassigned) [Example 2-20, tert-butyl 4-(3-(4-((3R,5R or 3S,5S)-3,5-dimethylmorpholine-4-carbonyl)-3-methylphenylamino)-4-oxo-4,5-dihydropyrazolo[4,3-c]pyridin-1-yl)-4-ethylpiperidine-1-carboxylate]",0.79
3,"CCC1(n2nc(Nc3ccc([C@@]4(C(F)(F)F)CCCN4)cc3)c3c(=O)[nH]ccc32)CCN(C(=O)OC(C)(C)C)CC1 (single isomer, unassigned) [Example 2-34, (R or S)-tert-butyl 4-ethyl-4-(4-oxo-3-(4-(2-(trifluoromethyl)pyrrolidin-2-yl)phenylamino)-4,5-dihydropyrazolo[4,3-c]pyridin-1-yl) piperidine-1-carboxylate]",2.5
4,"CCC1(n2nc(Nc3ccc(S(=O)(=O)N4CCC[C@@H]4C)cc3)c3c(=O)[nH]ccc32)CCN(C(=O)OC(C)(C)C)CC1 (single isomer, unassigned) [Example 2-38, (S or R)-tert-butyl 4-ethyl-4-(3-(4-(2-methylpyrrolidin-1-ylsulfonyl)phenylamino)-4-oxo-4,5-dihydropyrazolo[4,3-c]pyridin-1-yl) piperidine-1-carboxylate]",2.38
5,"CCC1(n2nc(Nc3ccc(S(=O)(=O)N4CCC[C@H]4C)cc3)c3c(=O)[nH]ccc32)CCN(C(=O)OC(C)(C)C)CC1 (single isomer, unassigned) [Example 2-39, (R or S)-tert-butyl 4-ethyl-4-(3-(4-(2-methylpyrrolidin-1-ylsulfonyl)phenylamino)-4-oxo-4,5-dihydropyrazolo[4,3-c]pyridin-1-yl) piperidine-1-carboxylate]",2.13
6,"CCC1(n2nc(Nc3ccc(C(=O)N4[C@H](C)COC[C@@H]4C)c(C)c3)c3c(=O)[nH]ccc32)CCN(C(=O)OC(C)(C)C)CC1 [Example 2-18, tert-butyl 4-(3-(4-((3S,5R)-3,5-dimethylmorpholine-4-carbonyl)-3-methylphenylamino)-4-oxo-2,3,4,5-tetrahydropyrazolo[4,3-c]pyridin-1-yl)-4-ethylpiperidine-1-carboxylate]",0.61

# Target: JAK2 (Homo sapiens (Human), UniProt O60674)
# Sequence (O60674 849-1124): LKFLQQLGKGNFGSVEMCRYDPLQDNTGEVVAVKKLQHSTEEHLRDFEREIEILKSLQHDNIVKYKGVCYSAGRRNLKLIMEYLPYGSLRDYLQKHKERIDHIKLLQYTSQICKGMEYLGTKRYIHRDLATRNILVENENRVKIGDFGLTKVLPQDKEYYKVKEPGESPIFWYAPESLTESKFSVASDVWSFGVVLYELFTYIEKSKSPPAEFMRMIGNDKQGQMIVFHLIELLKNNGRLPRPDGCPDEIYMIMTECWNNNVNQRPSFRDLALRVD
# Assay: Jak Biochemical HTRF Assay (JAK2)
# Details: recombinant purified GST-tagged catalytic domain, [ATP] 8.5 μM, [E] 0.052 nM
# Protocol: as §1, §2
row,SMILES,IC50 [nM]
1,"CCC1(n2nc(Nc3ccc([C@@]4(C(F)(F)F)CCCN4)cc3)c3c(=O)[nH]ccc32)CCN(C(=O)OC(C)(C)C)CC1 (single isomer, unassigned) [Example 2-34, (R or S)-tert-butyl 4-ethyl-4-(4-oxo-3-(4-(2-(trifluoromethyl)pyrrolidin-2-yl)phenylamino)-4,5-dihydropyrazolo[4,3-c]pyridin-1-yl) piperidine-1-carboxylate]",2.5
2,"CCC1(n2nc(Nc3ccc(C(=O)N4CCCOC(C)C4)c(C)c3)c3c(=O)[nH]ccc32)CCN(C(=O)OC(C)(C)C)CC1 (single isomer, unassigned) [Example 3-22, tert-butyl 4-ethyl-4-[3-({3R or 3S-methyl-4-[(2-methyl-1,4-oxazepan-4-yl)carbonyl]phenyl}amino)-4-oxo-4,5-dihydro-1H-pyrazolo [4,3-c]pyridin-1-yl] piperidine-1-carboxylate]",0.87
3,"CCC1(n2nc(Nc3ccc(C(=O)N4CCCOC(C)C4)c(C)c3)c3c(=O)[nH]ccc32)CCN(C(=O)OC(C)(C)C)CC1 (single isomer, unassigned) [Example 3-23, tert-butyl 4-ethyl-4-[3-({3R or 3S-methyl-4-[(2-methyl-1,4-oxazepan-4-yl)carbonyl]phenyl}amino)-4-oxo-4,5-dihydro-1H-pyrazolo [4,3-c]pyridin-1-yl] piperidine-1-carboxylate]",0.7
